This is an account of results in patent publication US20140179681A1, “METHODS AND COMPOSITIONS OF TARGETED DRUG DEVELOPMENT” (priority 2010, published 2014).

The subject of one assay is MDBK line. Description: MTT Cell Proliferation Assay, MDBK cells. As to conditions: Bos taurus, MDBK, 72 h, Table 10; second of x/y(ratio): MDBK; three day treatment; unit not printed (doses in μM); read-out: MTT assay (second value). The assay is classed as cell-based, bovine. The procedure, abridged:
(§1)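 Each concentration ran in quadruplicate across duplicate plates, with compounds serially diluted in DMSO and delivered at 0.5% DMSO in 0.5% FBS medium for 3 days.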
Background: Tetrazolium assays rely on reduction of a dye to a coloured formazan, in cell work by metabolically active cells.

Another assay addresses T1, EGFR (Homo sapiens, UniProt P00533).
T1 construct: host or cells: A431
The experiment in a line: EGFR in-cell Western (ICW) screening protocol (EGFR inhibition assay). As to conditions: Table 10; % Inhibition of EGF dependent EGFR phosphorylation in A431 cells; compound 125 μM in assay. The assay is classed as cell-based. The procedure, abridged: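 In-cell Western read-out: fixed A431 cells were co-stained for total EGFR and phospho-EGFR (Tyr1173; some runs Tyr1045). Before fixation, cells were serum-starved for 2 h, exposed to compound for 4 h, then given EGF for 10 min, usually at 10 ng/ml final (6.6 or 12.5 ng/ml in some runs).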

Assay [1] concerns epithelial carcinoma A431 cell line. The experiment in a line: MTT Cell Proliferation Assay, A431 cells. The assay is classed as cell-based. As to conditions: Homo sapiens, A-431, 72 h, Table 10; first of x/y(ratio): A431; three day treatment; unit not printed (doses in μM); read-out: MTT assay (first value). Summed up: as §1

T1 sequence (P00533 25-1210): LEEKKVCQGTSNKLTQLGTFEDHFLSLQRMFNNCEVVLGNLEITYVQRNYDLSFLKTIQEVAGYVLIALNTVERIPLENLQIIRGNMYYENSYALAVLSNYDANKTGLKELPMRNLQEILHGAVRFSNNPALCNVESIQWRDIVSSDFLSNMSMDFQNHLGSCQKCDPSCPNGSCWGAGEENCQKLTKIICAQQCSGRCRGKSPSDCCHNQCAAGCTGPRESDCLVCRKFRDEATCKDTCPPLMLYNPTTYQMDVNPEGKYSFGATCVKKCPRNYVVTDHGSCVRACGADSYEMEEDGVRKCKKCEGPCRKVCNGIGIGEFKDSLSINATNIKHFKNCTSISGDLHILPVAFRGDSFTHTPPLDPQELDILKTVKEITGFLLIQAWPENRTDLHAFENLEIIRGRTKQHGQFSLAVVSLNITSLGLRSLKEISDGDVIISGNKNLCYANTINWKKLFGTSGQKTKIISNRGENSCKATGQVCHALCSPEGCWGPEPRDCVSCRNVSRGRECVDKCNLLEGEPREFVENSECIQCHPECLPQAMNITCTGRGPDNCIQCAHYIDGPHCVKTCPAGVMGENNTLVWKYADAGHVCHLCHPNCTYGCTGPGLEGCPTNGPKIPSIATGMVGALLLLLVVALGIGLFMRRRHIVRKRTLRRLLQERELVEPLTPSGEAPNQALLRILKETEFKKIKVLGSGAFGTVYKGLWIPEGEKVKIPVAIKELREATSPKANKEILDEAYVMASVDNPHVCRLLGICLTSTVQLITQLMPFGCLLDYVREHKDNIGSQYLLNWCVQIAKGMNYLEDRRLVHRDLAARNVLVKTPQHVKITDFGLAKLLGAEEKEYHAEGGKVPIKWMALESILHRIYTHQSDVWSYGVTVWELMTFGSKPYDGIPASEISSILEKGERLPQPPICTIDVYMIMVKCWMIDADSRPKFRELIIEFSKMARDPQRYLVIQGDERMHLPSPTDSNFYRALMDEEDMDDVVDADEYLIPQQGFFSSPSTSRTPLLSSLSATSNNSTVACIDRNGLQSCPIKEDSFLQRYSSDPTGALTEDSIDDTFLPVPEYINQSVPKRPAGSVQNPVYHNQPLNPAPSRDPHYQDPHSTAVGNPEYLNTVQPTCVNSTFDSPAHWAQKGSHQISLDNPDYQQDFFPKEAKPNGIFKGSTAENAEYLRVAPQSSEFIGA

As to `CC(C)c1ccc(NC(=S)Nc2ccc(S(=O)(=O)Nc3ccc(Cl)cc3)cc2)cc1` [AD4-12503], the values for the IC50 (in the assay on MDBK line; in assay [1]) were 5.43 µM and 4.05 µM, respectively. The ICW assay against EGFR is given as 79.4624.

As for `O=S(=O)(Nc1ccc(Cl)cc1)c1ccc(NC(=S)Nc2ccc(Br)cc2)cc1` [AD4-12504], the IC50 turned out to be 15.6 µM in the assay with MDBK line and 11.1 µM in assay [1]. For the same compound, the ICW assay on EGFR turned out to be 118.46.

In the case of `Cc1ccc(NC(=S)Nc2ccc(S(=O)(=O)Nc3ccc(Cl)cc3)cc2)cc1Cl` [AD4-12505], the IC50 in the assay on MDBK line was 6.02 µM; in assay [1] it was 5.69 µM. The ICW assay against EGFR is 93.3284.

As for `O=S(=O)(Nc1cc(Cl)cc(Cl)c1)c1ccc(NC(=S)Nc2cccc(C(F)(F)F)c2)cc1` [AD4-12509], the IC50 with MDBK line was determined as 5.24 µM; in assay [1], 5.49 µM. The compound also came in with an ICW assay against EGFR of 140.975.

Consider `Cc1cc(C)cc(NC(=S)Nc2ccc(S(=O)(=O)Nc3ccc(Cl)cc3)cc2)c1` [AD4-12512], for which the IC50 in the assay on MDBK line came out at 5.83 µM; in assay [1] it was 6.4 µM. Besides, the ICW assay on EGFR is given as 28.9126.

In the case of `COc1ccc(NC(=S)Nc2ccc(S(=O)(=O)Nc3ccccc3C)cc2)c(OC)c1` [AD4-12517], the results for the IC50 (in the assay on MDBK line; in assay [1]) were 20 µM and 30.4 µM, respectively. This compound came in with an ICW assay on EGFR of 31.5308.

Turning to `CCOc1ccccc1NC(=S)Nc1ccc(S(=O)(=O)Nc2ccc(Cl)cc2)cc1` [AD4-12521], the IC50 was 6.54 µM in the assay on MDBK line and 6.99 µM in assay [1]. In addition, at EGFR, the ICW assay is listed as 45.7824.

Turning to `Cc1ccc(NC(=S)Nc2ccc(S(=O)(=O)Nc3cc(Cl)cc(Cl)c3)cc2)cc1Cl` [AD4-12522], the figures for the IC50 (in the assay on MDBK line; in assay [1]) were 5.33 µM and 6.2 µM, respectively. In addition, on EGFR, the ICW assay was found to be 123.893.

For the compound `COc1ccc(NC(=S)Nc2ccc(S(=O)(=O)Nc3ccc(Cl)cc3)cc2)cc1OC` [AD4-12525], the IC50 is 12.2 µM in the assay with MDBK line and 14.8 µM in assay [1]. The compound also showed an ICW assay on EGFR of 34.1311.

In the case of `COc1ccc(NC(=S)Nc2ccc(S(=O)(=O)Nc3ccccc3C)cc2)cc1OC` [AD4-12527], the figures for the IC50 (with MDBK line; in assay [1]) were 20 µM and 26.9 µM, respectively. Besides, on EGFR, the ICW assay was found to be 31.9587.

For the compound `O=S(=O)(Nc1cc(Cl)cc(Cl)c1)c1ccc(NC(=S)Nc2ccc(Cl)c(Cl)c2)cc1` [AD4-12528], the IC50 with MDBK line was 5.3 µM; in assay [1], 5.43 µM. Also, the ICW assay at EGFR is 123.946.

As to `CCOc1ccc(NC(=S)Nc2ccc(S(=O)(=O)Nc3cc(Cl)cc(Cl)c3)cc2)cc1` [AD4-12529], the IC50 came out at 6.47 µM in the assay with MDBK line and 6.35 µM in assay [1]. On EGFR, this compound yielded an ICW assay of 63.9249.

For the compound `COc1ccccc1NS(=O)(=O)c1ccc(NC(=S)Nc2ccc(OC)c(OC)c2)cc1` [AD4-12537], the figures for the IC50 (in the assay on MDBK line; in assay [1]) were 38.6 µM and 35.4 µM, respectively. Also, the ICW assay against EGFR is listed as 30.7051.

`COC(=O)c1sc2cc(NC(=S)Nc3ccc(S(=O)(=O)Nc4c(C)cc(C)cc4C)cc3)ccc2c1Cl` [AD4-12560]: the results for the IC50 (in the assay with MDBK line; in assay [1]) were 5.23 µM and 8.88 µM, respectively. The ICW assay on EGFR is 42.3275.

As to `COc1ccc(NS(=O)(=O)c2ccc(NC(=S)Nc3ccccc3C(F)(F)F)cc2)cc1` [AD4-12577], the IC50 turned out to be 5.92 µM in the assay with MDBK line and 6.62 µM in assay [1]. Besides, the ICW assay against EGFR is recorded as 29.4151.

Turning to `O=S(=O)(Nc1ccccc1)c1ccc(NC(=S)Nc2ccc(Cl)cc2)cc1` [AD4-12783], the IC50 turned out to be 7.62 µM in the assay with MDBK line and 7 µM in assay [1]. On EGFR, the ICW assay is on record as 57.4272.

`CCC(C)c1ccc(NC(=S)Nc2ccc(S(=O)(=O)Nc3ccccc3)cc2)cc1` (stereo not drawn) [AD4-12798]: the IC50 with MDBK line was 5.69 µM; in assay [1] it was 4.74 µM. At EGFR, this compound showed an ICW assay of 49.531.

For the compound `CC1CCc2cc(F)ccc2N1S(=O)(=O)c1ccc(NC(=S)Nc2ccc(Br)cc2)cc1` (stereo not drawn) [AD4-12813], the figures for the IC50 (with MDBK line; in assay [1]) were 13.6 µM and 11.8 µM, respectively. Besides, the ICW assay against EGFR is 26.1431.

With `CC(C)c1ccc(NC(=S)Nc2ccc(S(=O)(=O)Nc3ccccc3)cc2)cc1` [AD4-12820], the IC50 was 5.93 µM in the assay on MDBK line and 5.98 µM in assay [1]. This compound gave an ICW assay on EGFR of 47.471.

Take `O=S(=O)(Nc1ccccc1)c1ccc(NC(=S)Nc2ccc(Cl)cc2Cl)cc1` [AD4-12822]: the IC50 in the assay with MDBK line was 7.04 µM; in assay [1], 6.92 µM. The ICW assay on EGFR stood at 51.4082.

Regarding `CCCCc1ccc(NC(=S)Nc2ccc(S(=O)(=O)Nc3ccccc3)cc2)cc1` [AD4-12823], the IC50 in the assay on MDBK line is 4.06 µM; in assay [1], 4.07 µM. This compound gave an ICW assay at EGFR of 30.8167.

For the compound `CC(=O)c1cccc(NC(=S)Nc2ccc(S(=O)(=O)N3c4ccc(F)cc4CCC3C)cc2)c1` (stereo not drawn) [AD4-12825], the results for the IC50 (in the assay on MDBK line; in assay [1]) were 5.46 µM and 6.78 µM, respectively. This compound also displayed an ICW assay against EGFR of 26.7866.

As for `CC1CCc2cc(F)ccc2N1S(=O)(=O)c1ccc(NC(=S)Nc2ccc(Cl)c(Cl)c2)cc1` (stereo not drawn) [AD4-12827], the IC50 is 6.4 µM with MDBK line and 6.49 µM in assay [1]. Also, on EGFR, the ICW assay was 45.9206.

In the case of `CC1CCc2cc(F)ccc2N1S(=O)(=O)c1ccc(NC(=S)Nc2ccc3c(c2)OCO3)cc1` (stereo not drawn) [AD4-12828], the results for the IC50 (with MDBK line; in assay [1]) were 63.4 µM and 26.6 µM, respectively. This compound also gave an ICW assay on EGFR of 32.6456.

As to `Cc1ccc(Cl)cc1NC(=S)Nc1ccc(S(=O)(=O)N2c3ccc(F)cc3CCC2C)cc1` (stereo not drawn) [AD4-12829], the IC50 was found to be 37.3 µM in the assay on MDBK line and 37 µM in assay [1]. Moreover, the ICW assay against EGFR is listed as 46.4407.

`CC1CCc2cc(F)ccc2N1S(=O)(=O)c1ccc(NC(=S)Nc2ccc(Br)cc2Cl)cc1` (stereo not drawn) [AD4-12832]: the IC50 in the assay with MDBK line amounted to 16.3 µM; in assay [1], 7.71 µM. The ICW assay on EGFR was found to be 29.02.

For the compound `O=S(=O)(Nc1ccccc1)c1ccc(NC(=S)Nc2ccc(Cl)c(Cl)c2)cc1` [AD4-12833], the IC50 was found to be 5.96 µM in the assay with MDBK line and 5.94 µM in assay [1]. The same compound came in with an ICW assay against EGFR of 115.634.

On to `O=S(=O)(Nc1ccccc1)c1ccc(NC(=S)Nc2cccc(C(F)(F)F)c2)cc1` [AD4-12835], for which the values for the IC50 (in the assay with MDBK line; in assay [1]) were 5.89 µM and 6.15 µM, respectively. On EGFR, this compound registered an ICW assay of 116.579.

In the case of `CC1CCc2cc(F)ccc2N1S(=O)(=O)c1ccc(NC(=S)Nc2ccc(F)c(Cl)c2)cc1` (stereo not drawn) [AD4-12836], the IC50 in the assay with MDBK line turned out to be 8.43 µM; in assay [1], 9.32 µM. This compound showed an ICW assay on EGFR of 46.1658.

With `CC1CCc2cc(F)ccc2N1S(=O)(=O)c1ccc(NC(=S)Nc2cccc(F)c2)cc1` (stereo not drawn) [AD4-12837], the values for the IC50 (with MDBK line; in assay [1]) were 5.68 µM and 6.28 µM, respectively. This compound also displayed an ICW assay against EGFR of 35.1542.

`O=S(=O)(Nc1ccccc1)c1ccc(NC(=S)Nc2cccc(Cl)c2)cc1` [AD4-12842]: the IC50 with MDBK line turned out to be 5.55 µM; in assay [1], 6.72 µM. This compound returned an ICW assay against EGFR of 80.8965.

As to `Cc1ccc(NC(=S)Nc2ccc(S(=O)(=O)Nc3ccccc3)cc2)cc1Cl` [AD4-12844], the IC50 with MDBK line worked out at 6.13 µM; in assay [1], 6.8 µM. The same compound yielded an ICW assay against EGFR of 112.768.

On to `CC1CCc2cc(F)ccc2N1S(=O)(=O)c1ccc(NC(=S)Nc2ccc(F)cc2)cc1` (stereo not drawn) [AD4-12850], for which the IC50 in the assay on MDBK line was 35.8 µM; in assay [1], 31.8 µM. On EGFR, this compound had an ICW assay of 42.2628.
